# Patent US10246490B2 (priority 2014, dated 2019)
# System: HVA calcium channel (high-voltage activated calcium ion channel)
# Assay type: cell-based, rat
structure (smiles),measurement,setting,value
COC(=O)C1=C(C)NC(C)=C(C(=O)OC)C1c1ccccc1[N+](=O)[O-] [Nifedipine],current after loading,,−734.31 pA
same,current before loading,,−1471.35 pA
same,inhibition rate,10 μM,50.09%
